Experimental data taken from article PMC4380424, “Prediction of Overall In Vitro Microsomal Stability of Drug Candidates Based on Molecular Modeling and Support Vector Machines. Case Study of Novel Arylpiperazines Derivatives” (PLoS ONE, 2015).
“Also recorded” adds a separate entry of the source. Each block holds one compound with its values, some of them ahead of it.

Assays:
[1] = Metabolic stability: in vitro incubation with human liver microsomes and NADPH, LC-MS quantification; conditions: pooled human liver microsomes, pH 7.4
Protocol: (§1) The studied compounds were dissolved in acetonitrile (compounds 1, 3, 4, 10, 18, 19, 21, 22, 23, 24, 25, 26, 27, 28, 29), water (compounds 2, 7, 9, 11, 12, 13, 14, 15, 16, 17, 20, 30) or dimethyl sulfoxide (compounds 5 and 6), and diluted in phosphate buffer (pH = 7.4) to obtain 100 μM solutions. A 10 mM NADPH solution in phosphate buffer was prepared before incubations. Final concentrations in the incubation mixes were 5 μM of studied compound, 500 μM of NADPH and 1 mg/ml of human liver microsomes.
(§2) Using a MyBlock mini dry-bath (Benchmark Scientific, NJ, USA), mixtures without the compounds were subjected to a 5 min pre-incubation at 37°C before each experiment. Incubations were initiated with the addition of 15 μL of the compound solution to the mixture. The experiment lasted for 30 min. Immediately after addition of the compound, 50 μL of incubation mixture was collected and mixed with 50 μL of the stopping reagent, which was ice-cold acetonitrile containing 5 μM buspirone as internal standard. The next sample collection points were after 5, 10, 15 and 30 minutes of incubation time. After stopping the reaction, suspensions were centrifuged for 10 minutes at 7378 g using a Microfuge 16 (Beckman Instruments, Fullerton, CA, USA). Subsequently, 70 μL of supernatant thus obtained was directly analyzed using LC-MS (Agilent Technologies, Santa Clara, CA, USA).
(§3) The incubation and LC-MS analysis were repeated twice for each compound. To ensure that the biological conditions were valid, and no compound degradation occurs related to the addition of the enzyme solution, a negative control for each derivative was also performed.
(§4) The LC analysis was carried out using an Agilent 1260 Infinity system (Agilent Technologies) consisting of a binary pump, autosampler, temperature-controlled column compartment and UV variable wavelength detector, coupled with an Agilent 6120 Single Quad mass detector. Incubation samples were separated at 40°C on a Poroshell 120 EC-C-18 column (3 mm x 100 mm, 2.7 μm), provided by Agilent Technologies. The data were collected and processed in ChemStation software (v. B. 04.03, Agilent Technologies, Santa Clara, CA, USA). The injection volume was 10 μL. Mobile phases consisted of deionized water (phase A) and acetonitrile (phase B), both with 10 mM ammonium formate buffer (pH = 3) added. Gradient elution program was as follows: 0–15 min—5%-100% B, 15–16 min—100% B, 16–16.10 min—100%-5% B, 16.10–21 min 5% B. The flow rate was 0.5 ml/min. The total time for a single analysis was 21 minutes. MS detection was performed using an Agilent 6120 Single Quad mass spectrometer (Agilent Technologies) equipped with an electrospray (ESI) ion source. A nebulizer (pressure set to 40 psig) allowed for the gas phase ionization of studied compounds. Nitrogen (NM32LA Nitrogen Generator, Peak Scientific Instruments, Billerica, MA, USA) was used as the drying gas, with a flow rate of 10 L/min and a drying temperature of 300°C. Capillary voltage was set to 3000 V. Fragmentor voltage was set to 150 V. Chromatograms were collected with the use of single ion monitoring (SIM) in positive ion mode.
(§5) Half-life evaluation requires a compound depletion plot, which is obtained by plotting the time of incubation against the logarithmic peak area ratio (the ratio of the compound peak area to the internal standard peak area). […] After the elimination rate constant was designated, half-lives were calculated (Equation 1).

[2] = LC-Q-TOF-MS/MS metabolite structure elucidation after microsomal incubation; conditions: HLM + NADPH incubation
Protocol: as §1, §2
Tandem mass spectra of the metabolites were obtained with the use of an Agilent 1290 LC system connected to a hybrid Q-TOF tandem mass spectrometer (Agilent 6540 Series Accurate Mass Q-TOF-MS/MS). […] The Dual ESI source was operated in positive ion mode with the following conditions: the fragmentor voltage was set at 150V, nebulizer gas was set at 40 psig, capillary voltage was set at 3000 V, drying gas flow rate and temperature were set at 10 L/min and 300°C, respectively. The MS was operated in targeted MS/MS acquisition mode with a fixed collision energy of 35 V and a mass range of 30–1700 m/z. […] The instrument was operated in High Resolution mode (4 GHz). The Q-TOF was calibrated using reference masses 121.050873, 149.02332 and 922.009798 during the analysis run to ensure constant mass correction.
Several derivatives that varied in their degrees of non-pharmacophore ring saturation, R, R’ substituents and pharmacophore parts (2-pyridyl, 2-pyrimidynyl, phenyl-CF3), were chosen to collect fragmentation spectra using a Q-TOF tandem mass spectrometer and LC conditions as described earlier. […] The compounds’ structures and chromatographs were submitted to MassHunter Workstation Software MetaboliteID ver. B.02.00 build 2.0.121 to detect possible biotransformation products.

[3] = in vitro; conditions: human, microsomes, pH 7.4
Protocol: as §1, §2, §3, §4, §5

Type of biotransformation, metabolite M1 [2]: hydroxylation
half-life at 5 μM [1]: 5.29 min
Compound: O=c1c(-c2ccccc2)c2ccccn2c(=O)n1CCCCN1CCN(c2ncccn2)CC1 [Compound 6]
Type of biotransformation, metabolite M2 [2]: double hydroxylation in pharmacophore part

Type of biotransformation, metabolite M1 [2]: Hydroxylation in the pharmacophore part
Type of biotransformation, metabolite M2 [2]: hydroxylation
half-life at 5 μM [1]: 4 min
Compound: COc1ccccc1-c1c(=O)n(CCCCN2CCN(c3ncccn3)CC2)c(=O)n2ccccc12 [Compound 11]
Type of biotransformation, metabolite M3 [2]: O-demethylation reaction along with hydroxylation in the pharmacophore part; also recorded: O-demethylation and hydroxylation

More lines, now with the values behind:

Compound: O=C1CC2(CCCC2)CC(=O)N1CCCCN1CCN(c2ncccn2)CC1 [Buspirone, buspirone, reference compound]
half-life at 5 μM [1]: 6.59 min

Compound: O=C1C(c2ccccc2)C2CCCCN2C(=O)N1CCCCN1CCN(c2ccccc2F)CC1 (stereo not shown) [Compound 25]
half-life at 5 μM [3]: 5.77 min

Compound: O=c1c(-c2ccccc2)c2n(c(=O)n1CCCCN1CCN(c3ncccn3)CC1)CCCC2 [Compound 30]
Type of biotransformation, metabolite M1 [2]: hydroxylation of the non-pharmacophore part of the molecules; also recorded: hydroxylation in both pharmacophore and non-pharmacophore site
Type of biotransformation, metabolite M2 [2]: hydroxylation of the non-pharmacophore part of the molecules; also recorded: Hydroxylation in the non-pharmacophore part of the molecule; also recorded: hydroxylation
Type of biotransformation, metabolite M3 [2]: hydroxylation
half-life at 5 μM [1]: 9.32 min
